Results published in patent US20240180859A1, “COMPOSITIONS AND METHODS FOR IMMUNE-MEDIATED INFLAMMATORY DISEASES” (Thetis Pharmaceuticals LLC, priority 2022, published 2024).
One block for each compound: values may come before it.

Tests used:
MC-38 cells = experiment: MC38 model of colorectal cancer, subcutaneous tumors; type: in vivo, C57BL/6J male mice; conditions: 300 ug/kg, SC, P<0.05 vs placebo
Protocol: A representative compound of Formula IV, bis RvE1 magnesium di-lysinate (Compound 1), was tested for efficacy in several preclinical mouse models including the Panc2-H7 model of pancreatic cancer, and the MC38 model of colorectal cancer. These models are well established, highly tumorigenic syngeneic models in which murine cancer cell lines are injected subcutaneously (SC) into the dorsum of C57BL/6J mice. If left untreated, these tumors grow rapidly and lead to death or euthanasia, per protocol. As detailed below in Examples 1-4 and the accompanying figures, bis RvE1 Mg-di-lysinate (Compound 1) was unexpectedly effective as an anti-cancer agent in each of these model systems when administered in a less than daily (LTD) dosing regimen. […] Without being bound by any theory, the surprising efficacy of LTD dosing of resolvins in the model systems described here may be the result of durable effects on the inflammatory phenotype of the tumor microenvironment including changes in immune cell phenotype, vascularization, stromal phenotype, and antigen presentation, as well as durable effects on the T-cell compartment such as T-cell priming and increased tumor-infiltrating lymphocytes. […]

Panc2-H7 cells = experiment: Panc2-H7 model of pancreatic cancer, subcutaneous tumors; type: in vivo, C57BL/6J male mice; conditions: SC
Protocol: A representative compound of Formula IV, bis RvE1 magnesium di-lysinate (Compound 1), was tested for efficacy in several preclinical mouse models including the Panc2-H7 model of pancreatic cancer, and the MC38 model of colorectal cancer. These models are well established, highly tumorigenic syngeneic models in which murine cancer cell lines are injected subcutaneously (SC) into the dorsum of C57BL/6J mice. If left untreated, these tumors grow rapidly and lead to death or euthanasia, per protocol. As detailed below in Examples 1-4 and the accompanying figures, bis RvE1 Mg-di-lysinate (Compound 1) was unexpectedly effective as an anti-cancer agent in each of these model systems when administered in a less than daily (LTD) dosing regimen. […] Without being bound by any theory, the surprising efficacy of LTD dosing of resolvins in the model systems described here may be the result of durable effects on the inflammatory phenotype of the tumor microenvironment including changes in immune cell phenotype, vascularization, stromal phenotype, and antigen presentation, as well as durable effects on the T-cell compartment such as T-cell priming and increased tumor-infiltrating lymphocytes.
Based on the previous findings in the MC38 colorectal cancer model with less than daily (LTD) dosing, a study in the Panc2-H7 model was conducted to assess the efficacy of LTD dosing of bis RvE1 Mg-di-lysinate in a different tumor model. A total of forty (40) C57BL/6J male mice were injected subcutaneously with 1×10e6 living Panc2-H7 cells. Once tumors reached 160-320 mm^3 in size, the mice were randomized (n=8 per group) to treatment with vehicle or SC injection with bis RvE1 Mg-di-lysinate at 30 ug/kg and 300 ug/kg (QD, Q7D).

[1] = Subcutaneous PK study of RvE1-Mg-Lys; type: in vivo, C57BL/6J mice; conditions: 100 or 300 ug/kg subcutaneous injection; baseline to 8 hours
Protocol: (§1) In the subcutaneous PK study, sixty-nine (69) C57BL/6J mice were administered 100 or 300 ug/kg doses of RvE1-Mg-Lys via subcutaneous injection. Mice were sacrificed and plasma was drawn at the following timepoints: baseline, 5, 15, 30 min, 1, 2, 4 and 8 hours (n=5 mice per timepoint). In the IV and oral PK studies, one-hundred eighty (180) Balb/c mice were administered RvE1-Na at 1 or 10 mg/kg via subcutaneous injection, IV injection, oral gavage (n=6 mice per timepoint). Plasma and lung tissue were assayed at the following timepoints: 0.25, 0.5, 1, 2, 6, 10 and 24 hours. […] Without being bound by any theory, the surprising efficacy of LTD dosing of resolvins in the cancer model systems described here may be the result of durable effects on the tumor microenvironment including changes in immune cell phenotype, vascularization, stromal phenotype, and antigen presentation, as well as durable effects on the T-cell compartment such as T-cell priming and increased tumor-infiltrating lymphocytes.

subcutaneous KPC tumors = experiment: RNAseq cell enrichment analysis of tumor samples; type: in vivo, mice; conditions: Q6D treatment, Day 26, compared to placebo
Protocol: RNAseq analysis was performed on tumor samples from mice with subcutaneous KPC tumors sacrificed on Day 26 following treatment (Q6D) with bis RvE1 Mg-di-lysinate (Compound 1) compared to placebo. […] Darker color indicates increased gene expression, for various immune cells and other cells, as listed across the top of the heatmap. The boxed cells shown in FIG. 4 indicate an increase in markers of monocytes and DC cell subset (cDCs, pDCs, and iDCs) and markers of NK, CD8+ T cells, Th1 cells, and memory T cells (CD8+ and CD4+) with Compound 1 treatment. […] Namely, these unexpected results may be due to durable effects on the tumor microenvironment including changes in immune cell phenotype and the T-cell compartment such as T-cell priming and increased tumor-infiltrating lymphocytes.

[2] = system: polymorphonuclear leukocyte (PMN) recruitment; conditions: equimolar dose; cited from earlier work
[3] = system: CD4+ and CD8+ cells in the liver; conditions: concanavalin A-induced murine model; cited from earlier work
[4] = PK studies of RvE1-Na (subcutaneous, IV, oral), plasma and lung tissue; type: in vivo, Balb/c mice; conditions: 0.25-24 hours
Protocol: as §1

- plasma levels of RvE1 over time [1]: rapid depletion
SMILES: CC[C@@H](O)/C=C/C=C\C[C@@H](O)/C=C/C=C/C=C\[C@@H](O)CCCC(=O)O [Compound 1, bis RvE1 Mg-di-lysinate]
- tumor volume (Day 15 vs Day 0), efficacy as a single agent vs placebo (MC-38 cells; Q3D): effective as a single agent
- tumor volume (Day 15 vs Day 0), efficacy as a single agent vs placebo (MC-38 cells; QD): effective as a single agent
- tumor volume (Day 20 vs Day 0), inhibition relative to placebo control (Panc2-H7 cells; 30 ug/kg, Q7D): demonstrated inhibition relative to placebo control
- tumor volume (Day 20 vs Day 0), inhibition relative to placebo control (Panc2-H7 cells; 30 ug/kg, QD): demonstrated inhibition relative to placebo control
- tumor volume (Day 20 vs Day 0), inhibition relative to placebo control (Panc2-H7 cells; 300 ug/kg, Q7D, P<0.05 vs placebo control): greatest inhibition
- tumor volume (Day 20 vs Day 0), inhibition relative to placebo control (Panc2-H7 cells; 300 ug/kg, QD): demonstrated inhibition relative to placebo control
- markers of NK, CD8+ T cells, Th1 cells, and memory T cells (CD8+ and CD4+), gene expression (subcutaneous KPC tumors): increase
- markers of monocytes and DC cell subset (cDCs, pDCs, and iDCs), gene expression (subcutaneous KPC tumors): increase

SMILES: CCC(=O)/C=C/C=C\C[C@@H](O)/C=C/C=C/C=C\[C@@H](O)CCCC(=O)O [Compound 18-oxo-RvE1, 18-oxo-RvE1]
- activity in zymosan-induced peritonitis (PMN recruitment) [2]: devoid of activity

SMILES: CC/C=C\C[C@H](O)/C=C/C=C\C=C\C=C\[C@@H](O)[C@@H](O)C/C=C\CCC(=O)O [RvD1, 7S,8R,17S-trihydroxy-4Z,9E,11E,13Z,15E,19Z-docosahexaenoic acid]
- levels of CD4+ and CD8+ cells in the liver [3]: markedly downregulated

SMILES: CC[C@@H](O)/C=C/C=C\C[C@@H](O)/C=C/C=C/C=C\[C@@H](O)CCCC(=O)O [RvE1, 5S,12R,18R-trihydroxy-6Z,8E,10E,14Z,16E-eicosapentaenoic acid]
- activity in zymosan-induced peritonitis (PMN recruitment) [2]: potently reduced
- levels of CD4+ and CD8+ cells in the liver [3]: markedly downregulated

- plasma and lung tissue levels of RvE1 over time ([4]; 1 or 10 mg/kg IV injection): rapid depletion
- plasma and lung tissue levels of RvE1 over time ([4]; 1 or 10 mg/kg oral gavage): rapid depletion
- plasma and lung tissue levels of RvE1 over time ([4]; 1 or 10 mg/kg subcutaneous injection): rapid depletion
SMILES: CC[C@@H](O)/C=C/C=C\C[C@@H](O)/C=C/C=C/C=C\[C@@H](O)CCCC(=O)[O-].[Na+] [RvE1-Na]
